This is an account of results in patent publication US20230151057A1, “LACTIC ACID BACTERIA GROWTH PROMOTER” (Asahi Group Holdings, Ltd., priority 2020, published 2023).

Ends that are not written are not given here.

Common to all, as to format: cell-based
Assay [1] concerns Lactobacillus acidophilus (FERM BP-4981). In words: Growth-promoting effect on Lactobacillus acidophilus in modified MRS medium (particle count). To be noted: Example 2, peptide 0.25 mg/mL, 37° C., 18 hours; for Rate of increase: control = 100%. The source says: Nitrogen sources in MRS medium were reduced to find a medium composition that achieves a total bacterial count of about 1.0×10^8 cell/mL to 1.0×10^9 cell/mL after culturing of each of the six bacterial strains Lactobacillus gasseri (FERNM BP-11331), Lactobacillus acidophilus (FERM BP-4981), Lactobacillus amylovorus (FERM BP-11255), Lactobacillus curvatus (NITE P-02033), Lactobacillus plantarum, and Lactobacillus brevis. This composition, named “modified MRS medium”, was used for the evaluation. Here, for the composition of the MRS medium, a composition described in a medium catalog provided by BD (Becton, Dickinson and Company) was used as a reference. The compositions of the MRS medium and the modified MRS medium are as follows. By chemical synthesis, 28 kinds of candidate peptides having the sequences shown below were provided. Each candidate peptide was added to the modified MRS medium at 0.25 mg/mL to provide a medium to be evaluated. The lactic acid bacterium Lactobacillus gasseri was inoculated at 1.0×10^7 cells/mL to the provided medium to be evaluated, and culture was carried out at a temperature of 37° C. for a culture period of 18 hours. The resulting culture was collected, and subjected to measurement of the particle concentration (particles/mL) as a characteristic value that can be used as an index of the bacterial cell growth, using a particle count analyzer (CDA-1000, Sysmex). The rate of increase (%) was calculated relative to a control value obtained using a medium to which no peptide was added, which was taken as 100%. For eight kinds of candidate peptides having the sequences shown below, the growth-promoting effect on a lactic acid bacterium was evaluated in the same manner as in Example 1 except that Lactobacillus acidophilus was used instead of Lactobacillus gasseri.

Assay [2] has as its system Lactobacillus amylovorus (FERM BP-11255). In words: Growth-promoting effect on Lactobacillus amylovorus in modified MRS medium (particle count). The note with it: Example 3, peptide 0.25 mg/mL, 37° C., 18 hours; for Rate of increase: control = 100%. An excerpt:
Nitrogen sources in MRS medium were reduced to find a medium composition that achieves a total bacterial count of about 1.0×10^8 cell/mL to 1.0×10^9 cell/mL after culturing of each of the six bacterial strains Lactobacillus gasseri (FERNM BP-11331), Lactobacillus acidophilus (FERM BP-4981), Lactobacillus amylovorus (FERM BP-11255), Lactobacillus curvatus (NITE P-02033), Lactobacillus plantarum, and Lactobacillus brevis. This composition, named “modified MRS medium”, was used for the evaluation. Here, for the composition of the MRS medium, a composition described in a medium catalog provided by BD (Becton, Dickinson and Company) was used as a reference. The compositions of the MRS medium and the modified MRS medium are as follows. By chemical synthesis, 28 kinds of candidate peptides having the sequences shown below were provided. Each candidate peptide was added to the modified MRS medium at 0.25 mg/mL to provide a medium to be evaluated. The lactic acid bacterium Lactobacillus gasseri was inoculated at 1.0×10^7 cells/mL to the provided medium to be evaluated, and culture was carried out at a temperature of 37° C. for a culture period of 18 hours. The resulting culture was collected, and subjected to measurement of the particle concentration (particles/mL) as a characteristic value that can be used as an index of the bacterial cell growth, using a particle count analyzer (CDA-1000, Sysmex). The rate of increase (%) was calculated relative to a control value obtained using a medium to which no peptide was added, which was taken as 100%. For eight kinds of candidate peptides having the sequences shown below, the growth-promoting effect on a lactic acid bacterium was evaluated in the same manner as in Example 1 except that Lactobacillus amylovorus was used instead of Lactobacillus gasseri.

Assay [3] deals with Lactobacillus curvatus (NITE P-02033). Kind of assay: Growth-promoting effect on Lactobacillus curvatus in modified MRS medium (particle count). The note with it: Example 4, peptide 0.25 mg/mL, 37° C., 18 hours; for Rate of increase: control = 100%. An excerpt:
Nitrogen sources in MRS medium were reduced to find a medium composition that achieves a total bacterial count of about 1.0×10^8 cell/mL to 1.0×10^9 cell/mL after culturing of each of the six bacterial strains Lactobacillus gasseri (FERNM BP-11331), Lactobacillus acidophilus (FERM BP-4981), Lactobacillus amylovorus (FERM BP-11255), Lactobacillus curvatus (NITE P-02033), Lactobacillus plantarum, and Lactobacillus brevis. This composition, named “modified MRS medium”, was used for the evaluation. Here, for the composition of the MRS medium, a composition described in a medium catalog provided by BD (Becton, Dickinson and Company) was used as a reference. The compositions of the MRS medium and the modified MRS medium are as follows. By chemical synthesis, 28 kinds of candidate peptides having the sequences shown below were provided. Each candidate peptide was added to the modified MRS medium at 0.25 mg/mL to provide a medium to be evaluated. The lactic acid bacterium Lactobacillus gasseri was inoculated at 1.0×10^7 cells/mL to the provided medium to be evaluated, and culture was carried out at a temperature of 37° C. for a culture period of 18 hours. The resulting culture was collected, and subjected to measurement of the particle concentration (particles/mL) as a characteristic value that can be used as an index of the bacterial cell growth, using a particle count analyzer (CDA-1000, Sysmex). The rate of increase (%) was calculated relative to a control value obtained using a medium to which no peptide was added, which was taken as 100%. For eight kinds of candidate peptides having the sequences shown below, the growth-promoting effect on a lactic acid bacterium was evaluated in the same manner as in Example 1 except that Lactobacillus curvatus was used instead of Lactobacillus gasseri.

For the substance “Val-Pro-Ala-Phe (VPAF; listed as Saccharomyces cerevisiae)”, the results for the Particle concentration in assay [1], in assay [2] and in assay [3] were 1.04e+08 mL⁻¹, 2.07e+08 mL⁻¹ and 2.15e+08 mL⁻¹, respectively. For the same substance, the Rate of increase in assay [1] was 113%; in assay [2] it was 108%; in assay [3], 117%.

Turning to Pro-Val-Tyr [PVY], the Particle concentration in assay [1] is 1.1e+08 mL⁻¹; in assay [2] it was 1.98e+08 mL⁻¹; in assay [3], 1.64e+08 mL⁻¹. The Rate of increase in assay [1] came to 113%; in assay [2], 121%; in assay [3], 116%.

Pro-Val-Phe [PVF]: the Particle concentration worked out at 1.01e+08 mL⁻¹ in assay [1], 2.07e+08 mL⁻¹ in assay [2] and 1.71e+08 mL⁻¹ in assay [3]. The Rate of increase in assay [1] came out at 111%; in assay [2], 108%; in assay [3] it was 95%.

Regarding Leu-Phe [LF], the Particle concentration in assay [1] stood at 8.75e+07 mL⁻¹; in assay [2], 2.08e+08 mL⁻¹; in assay [3], 2.22e+08 mL⁻¹. Besides, the Rate of increase in assay [1] turned out to be 121%; in assay [2] it was 109%; in assay [3] it was 124%.

As to “Leu-Pro-Trp-Gly (LPWG; listed as Saccharomyces cerevisiae)”, the Particle concentration in assay [1] is 1.03e+08 mL⁻¹; in assay [2] it was 2.13e+08 mL⁻¹; in assay [3] it was 1.97e+08 mL⁻¹. Besides, the Rate of increase was 113% in assay [1], 111% in assay [2] and 109% in assay [3].

In the case of “APKPDYPIA (listed as Saccharomyces cerevisiae) [Ala-Pro-Lys-Pro-Asp-Tyr-Pro-Ile-Ala]”, the Particle concentration in assay [1] came out at 9.73e+07 mL⁻¹; in assay [2], 1.83e+08 mL⁻¹; in assay [3], 1.6e+08 mL⁻¹. For the same substance, the Rate of increase in assay [1] was found to be 100%; in assay [2], 112%; in assay [3], 112%.

Regarding AGPQTF, the Particle concentration amounted to 1.02e+08 mL⁻¹ in assay [1], 1.93e+08 mL⁻¹ in assay [2] and 1.58e+08 mL⁻¹ in assay [3]. Further, the Rate of increase in assay [1] was found to be 105%; in assay [2], 118%; in assay [3] it was 111%.

Consider “Pro-Ser-Val-Phe (PSVF; listed as Saccharomyces cerevisiae)”, for which the figures for the Particle concentration in assay [1], in assay [2] and in assay [3] were 1e+08 mL⁻¹, 1.92e+08 mL⁻¹ and 1.68e+08 mL⁻¹, respectively. Also, the results for the Rate of increase in assay [1], in assay [2] and in assay [3] were 103%, 118% and 119%, respectively.
